Assay results from patent US10766869B2, “Triazoles for the treatment of demyelinating dieases” (Vertex Pharmaceuticals Incorporated, priority 2015, dated 2020).

Tested on: primary rat mixed cortical cells
Assay: In vitro myelination assay (MBP positive myelin strands, fold myelin pixels above background)
Type: cell-based
Settings: Rattus norvegicus, relative to baseline of no added compound; for fold induction at 1 µM: 1.0 μM compound, read-out: Fold myelin pixels above background, 1.0 μM; for fold induction at 10 µM: 10.0 μM compound, read-out: Fold myelin pixels above background, 10.0 μM
Outline: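 Myelination read as total MBP-immunopositive strand pixels per well, imaged at 10× after fixation on day 14 and expressed relative to untreated wells, at 1.0 and 10.0 μM. Cells: dissociated postnatal day 1 rat cortex, cultured two weeks with compound, re-dosed at days 6 and 10.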

Work on Cc1cc(Nc2ncn(-c3ccc(F)c(F)c3)n2)cc(N2CCN(CC(F)(F)F)CC2)c1 [Compound 231, 1-(3,4-difluorophenyl)-N-[3-methyl-5-[4-(2,2,2-trifluoroethyl)piperazin-1-yl]phenyl]-1,2,4-triazol-3-amine] yielded a fold induction at 1 µM of 100 to 1000 and a fold induction at 10 µM of 100 to 1000.
Cc1cc(Nc2ncn(-c3cc(F)nc(F)c3)n2)cc(N2CCN(C3COC3)CC2)c1 [Compound 232, 1-(2,6-difluoro-4-pyridyl)-N-[3-methyl-5-[4-(oxetan-3-yl)piperazin-1-yl]phenyl]-1,2,4-triazol-3-amine] was tested, and the fold induction at 1 µM was 10 to 100 and the fold induction at 10 µM was 10 to 100.
In the case of COCc1ccccc1-n1cnc(Nc2cc(C)cc(N3CCN(C4COC4)CC3)c2)n1 [Compound 233, 1-[2-(methoxymethyl)phenyl]-N-[3-methyl-5-[4-(oxetan-3-yl)piperazin-1-yl]phenyl]-1,2,4-triazol-3-amine], the fold induction at 1 µM is reported as ≤ 1 and the fold induction at 10 µM is reported as ≤ 1.
Compound C1=C(c2cc(Nc3ncn(-c4ccccc4)n3)cc(C3=CCOC3)c2)COC1 [Compound 234, N-[3,5-bis(2,5-dihydrofuran-3-yl)phenyl]-1-phenyl-1,2,4-triazol-3-amine] has a fold induction at 1 µM of 1 to 10 and a fold induction at 10 µM of 100 to 1000.
In the case of Cc1cc(Nc2ncn(-c3cc(F)cc(F)c3)n2)cc(C2CCN(C3COC3)CC2(F)F)c1 (stereo not shown) [Compound 235, N-[3-[3,3-difluoro-1-(oxetan-3-yl)-4-piperidyl]-5-methyl-phenyl]-1-(3,5-difluorophenyl)-1,2,4-triazol-3-amine], the fold induction at 1 µM is reported as 10 to 100 and the fold induction at 10 µM is reported as 10 to 100.
For CCCc1cc(Nc2ncn(-c3cnccn3)n2)cc(N2CCN(C3COC3)CC2)c1 [Compound 236, N-[3-[4-(oxetan-3-yl)piperazin-1-yl]-5-propyl-phenyl]-1-pyrazin-2-yl-1,2,4-triazol-3-amine], the fold induction at 1 µM was ≤ 1 and the fold induction at 10 µM was ≤ 1.
Cc1cc(N2CCN(C3COC3)CC2)cc(Nc2ncn(-c3ccccc3)n2)c1C [Compound 237, N-[2,3-dimethyl-5-[4-(oxetan-3-yl)piperazin-1-yl]phenyl]-1-phenyl-1,2,4-triazol-3-amine] gave a fold induction at 1 µM of 1000 to 10000 and a fold induction at 10 µM of 100 to 1000.
Cc1cc(Nc2ncn(-c3cc(F)cc(F)c3)n2)cc(N2CCC(O)CC2)c1 [Compound 238, 1-[3-[[1-(3,5-difluorophenyl)-1,2,4-triazol-3-yl]amino]-5-methyl-phenyl]piperidin-4-ol] was tested, and the fold induction at 1 µM was 1000 to 10000 and the fold induction at 10 µM was 100 to 1000.
For Cc1cc(Nc2ncn(-c3ccccc3)n2)cc(O[C@H]2CCN(C3COC3)C2)c1 [Compound 239, N-[3-methyl-5-[(3S)-1-(oxetan-3-yl)pyrrolidin-3-yl]oxy-phenyl]-1-phenyl-1,2,4-triazol-3-amine], the fold induction at 1 µM was 1000 to 10000 and the fold induction at 10 µM was ≤ 1.
Compound Cc1cc(Nc2ncn(-c3cc(F)cc(F)c3)n2)cc(NC2COC2)c1 [Compound 240, N3-[1-(3,5-difluorophenyl)-1,2,4-triazol-3-yl]-5-methyl-N1-(oxetan-3-yl)benzene-1,3-diamine] has a fold induction at 1 µM of 100 to 1000 and a fold induction at 10 µM of 1 to 10.
Fc1cc(Nc2ncn(-c3cccc(C(F)(F)F)c3)n2)cc(N2CCCC2)c1 [Compound 241, N-(3-fluoro-5-pyrrolidin-1-yl-phenyl)-1-[3-(trifluoromethyl)phenyl]-1,2,4-triazol-3-amine] was tested, and the fold induction at 1 µM was ≤ 1 and the fold induction at 10 µM was ≤ 1.
For Cc1cc(Nc2ncn(-c3cc(F)cc(F)c3)n2)cc(C2(O)CCN(C)C2)c1 (stereo not shown) [Compound 242, 3-[3-[[1-(3,5-difluorophenyl)-1,2,4-triazol-3-yl]amino]-5-methyl-phenyl]-1-methyl-pyrrolidin-3-ol], the fold induction at 1 µM was 10 to 100 and the fold induction at 10 µM was ≤ 1.
With Cc1cc(Nc2ncn(-c3cc(F)cc(F)c3)n2)cc(N2CCN(C3CCOCC3)CC2)c1 [Compound 243, 1-(3,5-difluorophenyl)-N-[3-methyl-5-(4-tetrahydropyran-4-ylpiperazin-1-yl)phenyl]-1,2,4-triazol-3-amine] the fold induction at 1 µM was 100 to 1000 and the fold induction at 10 µM was ≤ 1.
For CC1CCN(c2cc(Nc3ncn(-c4cc(F)cc(F)c4)n3)cc(C3CC3)n2)CC1 [Compound 244, 2-cyclopropyl-N-[1-(3,5-difluorophenyl)-1,2,4-triazol-3-yl]-6-(4-methyl-1-piperidyl)pyridin-4-amine], the fold induction at 1 µM was 1 to 10 and the fold induction at 10 µM was 10 to 100.
COc1cc(OC)cc(-n2cnc(Nc3cc(C4CC4)nc(N4CC[C@@H](F)C4)c3)n2)c1 [Compound 245, 2-cyclopropyl-N-[1-(3,5-dimethoxyphenyl)-1,2,4-triazol-3-yl]-6-[(3R)-3-fluoropyrrolidin-1-yl]pyridin-4-amine] was tested, and the fold induction at 1 µM was 1 to 10 and the fold induction at 10 µM was 10 to 100.
Compound COCC1CCN(c2cc(Cl)cc(Nc3ncn(-c4ccccc4)n3)c2)CC1 [Compound 246, N-[3-chloro-5-[4-(methoxymethyl)-1-piperidyl]phenyl]-1-phenyl-1,2,4-triazol-3-amine] has a fold induction at 1 µM of 10 to 100 and a fold induction at 10 µM of 100 to 1000.
Cc1cc(Nc2ncn(-c3ccccc3)n2)cc(C2CCCN(C3COC3)C2)c1 (stereo not shown) [Compound 248, N-[3-methyl-5-[1-(oxetan-3-yl)-3-piperidyl]phenyl]-1-phenyl-1,2,4-triazol-3-amine] showed a fold induction at 1 µM of 100 to 1000 and a fold induction at 10 µM of 1 to 10.
In the case of Cc1cc(Nc2ncn(-c3ccnc(F)c3)n2)cc(NC2CCN(C3COC3)C2)c1 (stereo not shown) [Compound 249, N3-[1-(2-fluoro-4-pyridyl)-1,2,4-triazol-3-yl]-5-methyl-N1-[1-(oxetan-3-yl)pyrrolidin-3-yl]benzene-1,3-diamine], the fold induction at 1 µM is reported as 10 to 100 and the fold induction at 10 µM is reported as ≤ 1.
Compound c1cncc(-n2cnc(Nc3cc(C4CCOCC4)cc(C4CCOCC4)c3)n2)c1 [Compound 250, N-[3,5-di(tetrahydropyran-4-yl)phenyl]-1-(3-pyridyl)-1,2,4-triazol-3-amine] has a fold induction at 1 µM of 100 to 1000 and a fold induction at 10 µM of 10 to 100.
With c1ccc(-n2cnc(Nc3cc(C4CCOCC4)cc(N4CCOCC4)c3)n2)cc1 [Compound 251, N-(3-morpholino-5-tetrahydropyran-4-yl-phenyl)-1-phenyl-1,2,4-triazol-3-amine] the fold induction at 1 µM was 100 to 1000 and the fold induction at 10 µM was 1 to 10.
In the case of Cc1cc(Nc2ncn(-c3cccc(OC(F)(F)F)c3)n2)cc(N2CCN(C3COC3)CC2)c1 [Compound 252, N-[3-methyl-5-[4-(oxetan-3-yl)piperazin-1-yl]phenyl]-1-[3-(trifluoromethoxy)phenyl]-1,2,4-triazol-3-amine], the fold induction at 1 µM is reported as 1000 to 10000 and the fold induction at 10 µM is reported as 10 to 100.
With COCCN1CCN(c2cc(C)cc(Nc3ncn(-c4ccccc4)n3)c2)CC1 [Compound 253, N-[3-[4-(2-methoxyethyl)piperazin-1-yl]-5-methyl-phenyl]-1-phenyl-1,2,4-triazol-3-amine] the fold induction at 1 µM was 1000 to 10000 and the fold induction at 10 µM was 10 to 100.
With COc1cc(-n2cnc(Nc3cc(C)cc(N4CCN(C5COC5)CC4)c3)n2)ncn1 [Compound 254, 1-(6-methoxypyrimidin-4-yl)-N-[3-methyl-5-[4-(oxetan-3-yl)piperazin-1-yl]phenyl]-1,2,4-triazol-3-amine] the fold induction at 1 µM was ≤ 1 and the fold induction at 10 µM was 100 to 1000.
Work on CCc1cc(F)cc(-n2cnc(Nc3cc(C)cc(N4CCN(C)CC4)c3)n2)c1 [Compound 255, 1-(3-ethyl-5-fluoro-phenyl)-N-[3-methyl-5-(4-methylpiperazin-1-yl)phenyl]-1,2,4-triazol-3-amine] yielded a fold induction at 1 µM of 100 to 1000 and a fold induction at 10 µM of 100 to 1000.
CN1CCN(c2cc(Nc3ncn(-c4cccc(F)c4)n3)cc(C(F)(F)F)c2)CC1 [Compound 257, 1-(3-fluorophenyl)-N-[3-(4-methylpiperazin-1-yl)-5-(trifluoromethyl)phenyl]-1,2,4-triazol-3-amine] was tested, and the fold induction at 1 µM was 100 to 1000 and the fold induction at 10 µM was ≤ 1.
Compound COc1cc(Nc2ncn(-c3cccc(F)c3)n2)cc(N2CCN(C3COC3)CC2)c1 [Compound 258, 1-(3-fluorophenyl)-N-[3-methoxy-5-[4-(oxetan-3-yl)piperazin-1-yl]phenyl]-1,2,4-triazol-3-amine] has a fold induction at 1 µM of 100 to 1000 and a fold induction at 10 µM of 1 to 10.
With Cc1cc(Nc2ncn(-c3ccccc3)n2)cc(N2CCNC(C)C2)c1 (stereo not shown) [Compound 259, N-[3-methyl-5-(3-methylpiperazin-1-yl)phenyl]-1-phenyl-1,2,4-triazol-3-amine] the fold induction at 1 µM was 1000 to 10000 and the fold induction at 10 µM was ≤ 1.
Cc1cc(Nc2ncn(-c3ccccc3)n2)cc(C2CCN(C3COC3)C2)c1 (stereo not shown) [Compound 260, N-[3-methyl-5-[1-(oxetan-3-yl)pyrrolidin-3-yl]phenyl]-1-phenyl-1,2,4-triazol-3-amine] was tested, and the fold induction at 1 µM was 1000 to 10000 and the fold induction at 10 µM was ≤ 1.
Cc1cc(Nc2ncn(-c3cc(F)cc(F)c3)n2)cc(C2CCN(C3CC3)CC2)c1 [Compound 261, N-[3-(1-cyclopropyl-4-piperidyl)-5-methyl-phenyl]-1-(3,5-difluorophenyl)-1,2,4-triazol-3-amine] gave a fold induction at 1 µM of 10 to 100 and a fold induction at 10 µM of 10 to 100.
Cc1cc(Nc2ncn(-c3cncc(Cl)c3)n2)cc(N2CCN(C)CC2)c1 [Compound 262, 1-(5-chloro-3-pyridyl)-N-[3-methyl-5-(4-methylpiperazin-1-yl)phenyl]-1,2,4-triazol-3-amine] gave a fold induction at 1 µM of 10 to 100 and a fold induction at 10 µM of 100 to 1000.
Cc1cc(Nc2ncn(-c3ccc(F)c(F)c3)n2)cc(N2CCN(C)CC2)n1 [Compound 263, N-[1-(3,4-difluorophenyl)-1,2,4-triazol-3-yl]-2-methyl-6-(4-methylpiperazin-1-yl)pyridin-4-amine] gave a fold induction at 1 µM of 10 to 100 and a fold induction at 10 µM of 100 to 1000.
Work on CCc1cc(Nc2ncn(-c3cc(F)cc(F)c3)n2)cc(N2CCN(C3(C)COC3)CC2)c1 [Compound 264, 1-(3,5-difluorophenyl)-N-[3-ethyl-5-[4-(3-methyloxetan-3-yl)piperazin-1-yl]phenyl]-1,2,4-triazol-3-amine] yielded a fold induction at 1 µM of 10 to 100 and a fold induction at 10 µM of 10 to 100.
